ChEMBL document CHEMBL1132391, “The sulfonimidamide as a novel transition state analog for aspartic acid and metallo proteases” (Bioorg Med Chem Lett, 1999)

Legend:
[1] = target: T1, Human immunodeficiency virus type 1 protease (Human immunodeficiency virus 1, UniProt Q72874); experiment: Tested for the inhibitory activity against HIV protease (First pure eluting diastereomer)
[2] = target: T2, Pepsin A (Sus scrofa, UniProt P00791); experiment: Tested for the inhibitory activity against pepsin (First pure eluting diastereomer)
T2 sequence (P00791 whole entry): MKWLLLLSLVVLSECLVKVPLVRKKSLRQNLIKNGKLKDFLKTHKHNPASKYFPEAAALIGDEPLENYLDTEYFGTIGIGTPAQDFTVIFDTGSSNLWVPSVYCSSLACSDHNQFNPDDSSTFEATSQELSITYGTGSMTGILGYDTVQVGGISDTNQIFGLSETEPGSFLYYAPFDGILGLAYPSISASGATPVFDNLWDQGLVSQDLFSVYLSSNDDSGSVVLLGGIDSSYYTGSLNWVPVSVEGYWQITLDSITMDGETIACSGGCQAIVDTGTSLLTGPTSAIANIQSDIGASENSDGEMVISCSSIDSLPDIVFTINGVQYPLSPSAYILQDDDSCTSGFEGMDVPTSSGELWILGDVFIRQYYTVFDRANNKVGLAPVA

[3] = target: T2, Pepsin A; experiment: Tested for the inhibitory activity against pepsin (Second pure eluting diastereomer )
[4] = target: T1, Human immunodeficiency virus type 1 protease; experiment: Tested for the inhibitory activity against HIV protease (Second pure eluting diastereomer )
[5] = (§1) Tested for the inhibitory activity against Carboxypeptidase A (mixture of diastereomers)
[6] = target: T1, Human immunodeficiency virus type 1 protease; experiment: Tested for the inhibitory activity against HIV protease
[7] = target: T2, Pepsin A; experiment: Tested for the inhibitory activity against pepsin
[8] = as §1; remark: listed apart in the source

Structure (SMILES) | IC50 [6] | IC50 [7] | also measured
COC(=O)[C@H](Cc1ccccc1)N=[S+](N)([O-])CCc1ccccc1 (some centres not stated) | – | – | IC50 [1]: 1000 µM; IC50 [2]: 700 µM; IC50 [3]: 700 µM; IC50 [4]: > 5000 µM
N[S+]([O-])(CCc1ccccc1)=N[C@@H](Cc1ccccc1)C(=O)O (some centres not stated) | – | – | IC50 [5]: 20 µM
N[S+]([O-])(CCc1ccccc1)=NCC(=O)OCc1ccccc1 (configuration not stated) | > 5000 µM | 700 µM | –
O=C(CCc1ccccc1)N[C@@H](Cc1ccccc1)C(=O)O | – | – | Km [8]: 2.1

Now from value to compound, other results behind:

IC50 [6] | IC50 [7] | Structure (SMILES) | also measured
> 3000 µM | > 3000 µM | O=C(CCc1ccccc1)NCC(=O)OCc1ccccc1 | –
> 3000 µM | > 3000 µM | COC(=O)[C@H](Cc1ccccc1)NC(=O)CCc1ccccc1 | –
